Test results: patent EP0009702A1, “A phenylalkylaminoethylsalicylamide, its preparation and pharmaceutical compositions containing it” (SCHERING CORPORATION, priority 1978, dated 1980)

How the values were obtained:
[1] = tested on: β-adrenergic receptors; settings: as disclosed in British patent specifications 1,541,932 and 1,541,933; cited from earlier work
[2] = tested on: a-adrenergic receptors; test: α-adrenergic blocking potency, animal tests; type: in vivo; settings: relative to labetalol (assigned value 1.0)
Source text: (§1) The a- and β-blocking activities discussed earlier in this specification can be determined by known methods, e.g. by those of Farmer et.al., Brit. J. Pharm., 45, 660 (1972); Robson, J. Pharm. Exp. Therap., 175, 157 (1970), and Levy, Arch. Int. Pharmacodyn. Ther., 204,. 143 (197-3).

[3] = tested on: β-adrenergic receptors; test: β-adrenergic blocking potency, animal tests; type: in vivo; settings: for β-blocking potency: relative to labetalol (assigned value 1.0), animal tests
Source text: as §1

[4] = direct peripheral vasodilation activity; type: in vivo; settings: compared with labetalol
[5] = antihypertensive activity, laboratory tests, oral dosing; type: in vivo; settings: result in words
[6] = toxicity at therapeutic doses; type: in vivo

Structure (SMILES) | β-adrenergic blocking activity [1] | a-blocking potency [2] | β-blocking potency [3] | direct peripheral vasodilation activity [4] | antihypertensive activity [5] | toxicity [6] | ratio of the β-adrenergic blocking potency to the a-adrenergic blocking potency ([3]; compared with labetalol)
CC(CCc1ccccc1)NCC(O)c1ccc(O)c(C(N)=O)c1 (racemic) [diastereoisomer A] | strongly reduced |  |  |  |  |  | 
C[C@H](CCc1ccccc1)NC[C@H](O)c1ccc(O)c(C(N)=O)c1 (racemic) [diastereoisomer B, reference compound] |  | half | not significantly different from that of labetalol |  |  |  | 
C[C@H](CCc1ccccc1)NC[C@H](O)c1ccc(O)c(C(N)=O)c1 (single isomer, unassigned; isomer 5) [(R,R) optical isomer] |  | about one third | about twelve times | greater direct peripheral vasodilation activity than labetalol | potent antihypertensive activity | substantially non-toxic | greatly and unexpectedly increased
